# Assays:
# [1] = test system: deformed wing virus; test: Screen of plant compounds for effect on bee viral loads in live bees; type: in vivo, honey bee; conditions: for antiviral activity in live bee trials: live bees exposed to natural products derived from plants; for deformed wing virus levels (viral loads), dose response: FIG. 6
# Method: A total of 140 compounds were screened for their effect on bee viral loads.
# All compounds are selected from food-safe (GRAS, generally recognized as safe by the US FDA) libraries and were tested in live bees to assess adverse impacts to bee health. Trials were carried out using live bees exposed to natural products derived from plants. […] Thymol and octanoic acid blends are being tested to assess possible synergies prior to field trials.
# [2] = test system: Deformed wing virus (DWV); test: Fluorescent determination of bee viral titers with nano-luciferase-expressing DWV construct; type: in vivo, bees; conditions: for Average Fluorescence, Average Counts: single treatment with 10^5 copies DWV, average of nine bees, DWV alone 111.366, PBS 1.687; for viral load of DWV-infected bees compared with DWV control: low, medium, or high doses
# Method: A fluorescent assay was performed to determine the effects of different treatments on bee viral load.
# Bees were treated once with different doses of methyl jasmonate while simultaneously receiving an effective does (10^5 copies) of Deformed wing virus (DWV). The methyl jasmonte was at low dose (MJL), medium dose (MJM), or high dose (MJH). Additional bees were treated with thymol solution in low dose (TL), medium dose (TM), and high dose (TH). The infective virus dose comprised a viral construct that expressed nano-luciferase, allowing direct quantification of viral loads via spectrophotometer. As a negative control, phosphate buffered saline (PBS) solution was used alone. As a positive control, bees were infected with 10^5 DWV alone. Measurements were repeated nine times in nine different bees, and an average calculated.
# [3] = test system: VDV; test: Methyl jasmonate feeding of naturally VDV-infected adult honey bees, VDV load per bee by qPCR (ΔCq); type: in vivo; conditions: for decrease in VDV titers compared to control bees (sugar alone) / mean change in quantification cycle value of VDV per bee (ΔCq) / decrease in VDV titers compared to control bees / mean ΔCq of VDV per bee: FIG. 1; for decrease in VDV titers compared to control bees (sugar alone) / mean change in quantification cycle value of VDV per bee (ΔCq): day 7; for mean change in quantification cycle value of VDV per bee (ΔCq): control 3.9 (+/-3.5); for decrease in VDV titers compared to control bees / mean ΔCq of VDV per bee: day 12; for mean ΔCq of VDV per bee: control 7.8 ( +/- 2.8)
# Method: The effect on viral load of methyl jasmonate (MeJA) treatment on virally-infected bees was tested after 7 days and after 12 days of feeding sugar or sugar + MeJA.
# Adult honey bees were reared in cages and fed either sucrose solution, 100 ppm MeJA dissolved in sucrose solution, or 500 ppm of MeJA dissolved in sucrose solution. Bees’ genetic material was individually examined by qPCR for normalized VDV loads at 7 days and 12 days after the start of MeJA treatment. Standard box plots include a dotted line that represents the mean, and each point represents an individual bee from one of various cages per treatment. VDV was not administered artificially and is from a natural infection. Levels of DWV-A, a recombinant variant of VDV, were too low in the specimen for quantification. A higher Δ Cq indicates […] VDV present in the specimen. For Day 7,
# A second efficiency test was performed where VDV-infected adult bees were fed 100 ppm of MeJA dissolved in sucrose solution. As a control, only sucrose solution was administered.
smiles,measurement,setting,value
"Cc1ccc(C(C)C)c(O)c1 [thymol, 2-isopropyl-5-methylphenol]",high-intensity infections (viral levels above threshold),"[1]; FIG. 5, across 3000 honey bee trials",quantitative reduction of high-intensity infections
same,antiviral activity in live bee trials,[1],antiviral activity
same,"Average Fluorescence, Average Counts",[2]; high dose,63.290
same,"Average Fluorescence, Average Counts",[2]; low dose,67.092
same,viral load of DWV-infected bees compared with DWV control,[2],lower viral load
same,"Average Fluorescence, Average Counts",[2]; medium dose,72.992
"COc1cc(/C=C/C(=O)O)ccc1O [ferulic acid, Ferulic acid]","deformed wing virus levels (viral loads), dose response","[1]; low levels, 0.1 mM",dose response in viral loads
same,antiviral activity in live bee trials,[1],antiviral activity
CCCCCCCC(=O)O [octanoic acid],"deformed wing virus levels (viral loads), dose response","[1]; higher levels, 10 mM and 100 mM",dose response in viral loads
same,antiviral activity in live bee trials,[1],antiviral activity
"CC/C=C\CC1C(=O)CCC1CC(=O)OC (stereo not shown) [MeJA, Methyl jasmonate]","deformed wing virus levels (viral loads), dose response","[1]; higher levels, 1 mM or 10 mM",dose response in viral loads
same,antiviral activity in live bee trials,[1],antiviral activity
same,decrease in VDV titers compared to control bees (sugar alone),[3]; sugar + 100 ppm MeJA,11.5%
same,mean change in quantification cycle value of VDV per bee (ΔCq),"[3]; sugar + 100 ppm MeJA, higher ΔCq = more VDV",3.45 (+/- 4.8)
same,decrease in VDV titers compared to control bees (sugar alone),[3]; sugar + 500 ppm MeJA,97.8%
same,mean change in quantification cycle value of VDV per bee (ΔCq),[3]; sugar + 500 ppm MeJA,0.085 (+/- 6.16)
same,decrease in VDV titers compared to control bees,[3]; sugar + 100 ppm MeJA,33.3%
same,mean ΔCq of VDV per bee,[3]; sugar + 100 ppm MeJA,5.2 ( +/- 4.9)
same,decrease in VDV titers compared to control bees,[3]; sugar + 500 ppm MeJA,52.6%
same,mean ΔCq of VDV per bee,[3]; sugar + 500 ppm MeJA,3.7 ( +/- 5.3)
same,decrease in VDV titers compared to bees fed sugar alone (using the mean),"[3]; FIG. 3, Day 7, sugar + 500 ppm MeJA",7.1%
same,median Cq,"[3]; FIG. 3, Day 7, sugar + 500 ppm MeJA, control 7.1",6.1
same,mean Cq,"[3]; FIG. 3, Day 7, sugar + 500 ppm MeJA, spread 2.1, control 7.0",6.5
same,decrease in VDV titers compared to bees fed sugar alone (using the mean),"[3]; second efficiency test, FIG. 2, Day 7, sugar + 100 ppm MeJA",21.9%
same,median ΔCq,"[3]; second efficiency test, FIG. 2, Day 7, sugar + 100 ppm MeJA, control 4.17",1.33
same,mean ΔCq,"[3]; second efficiency test, FIG. 2, Day 7, sugar + 100 ppm MeJA, std dev. 3.8, control 3.2",2.5
same,viral levels compared with bees fed sugar alone,[3]; treated for 12 days with sugar + MeJA,significantly lower viral levels
same,"Average Fluorescence, Average Counts",[2]; high dose,68.246
same,"Average Fluorescence, Average Counts",[2]; low dose,76.120
same,viral load of DWV-infected bees compared with DWV control,[2],lower viral load
same,"Average Fluorescence, Average Counts",[2]; medium dose,83.905

# — patent US20230329284A1, “BEE ANTIVIRAL COMPOSITIONS” (priority 2022, published 2023)
